Test results taken from ChEMBL document CHEMBL5325401, “Computer-aided identification, synthesis, and biological evaluation of DNA polymerase η inhibitors for the treatment of cancer” (Eur J Med Chem, 2023).
≈ marks a conversion by molar mass, not a printed value.

Tests used:
[1] = target: T1, DNA polymerase eta (Homo sapiens, UniProt Q9Y253); experiment: (§1) Inhibition of C-terminal 6xHis-tagged human DNA polymerase eta (1 to 511 residues) expressed in Escherichia coli BL21 DE3 using 5'-IRD700-GCAGGTCGACTCCAAAG-3' primer/ 5'-TCGGTACCGGGTTAGCCTTTGGAGTCGACCTGC-3' template as DNA substrate incubated for 60 mins in presence of Mg2+ by bromophenol blue staining based assay
T1 sequence (Q9Y253 whole entry): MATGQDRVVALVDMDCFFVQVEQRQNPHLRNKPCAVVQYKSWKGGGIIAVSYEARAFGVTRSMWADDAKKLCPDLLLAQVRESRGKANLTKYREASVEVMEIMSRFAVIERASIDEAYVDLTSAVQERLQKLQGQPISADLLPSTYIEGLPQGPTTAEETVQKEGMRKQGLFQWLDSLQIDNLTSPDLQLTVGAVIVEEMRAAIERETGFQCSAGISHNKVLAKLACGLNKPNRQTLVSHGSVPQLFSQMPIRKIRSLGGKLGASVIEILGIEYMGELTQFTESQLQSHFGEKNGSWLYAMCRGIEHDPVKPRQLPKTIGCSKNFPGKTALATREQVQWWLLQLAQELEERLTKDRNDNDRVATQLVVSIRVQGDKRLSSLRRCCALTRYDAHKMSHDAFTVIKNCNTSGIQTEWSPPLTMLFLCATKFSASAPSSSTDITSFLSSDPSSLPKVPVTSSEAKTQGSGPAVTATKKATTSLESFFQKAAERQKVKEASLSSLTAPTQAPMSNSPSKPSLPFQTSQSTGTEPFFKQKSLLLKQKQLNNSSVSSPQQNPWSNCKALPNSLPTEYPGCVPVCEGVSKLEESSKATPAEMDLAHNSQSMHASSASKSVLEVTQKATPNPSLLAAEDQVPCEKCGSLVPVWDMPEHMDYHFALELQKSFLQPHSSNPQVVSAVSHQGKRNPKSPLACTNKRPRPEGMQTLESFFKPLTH

[2] = target: T2, DNA polymerase eta (Homo sapiens) (UniProt Q9Y253); experiment: as §1, with “substrate at 1 uM” for “substrate”, “assay relative to control” for “assay”
T2 sequence (whole entry): T1 sequence (Q9Y253 whole entry)

[3] = target: T2, DNA polymerase eta (Homo sapiens); experiment: as §1, with “substrate at 100 uM” for “substrate”, “assay relative to control” for “assay”
[4] = Metabolic stability in mouse liver microsome assessed as half life at 4.6 uM incubated upto 60 mins by LC/MS-MS analysis; assay type: ADME; details: liver microsomes
[5] = Kinetic solubility of compound in neutral buffer at pH 7.4 at 250 uM measured after 24 hrs by UPLC/MS analysis; assay type: physicochemical; details: read-out: Kinetic_solubility
[6] = Metabolic stability in mouse plasma assessed as half life at 2 uM incubated upto 120 mins by UPLC/MS analysis; assay type: ADME, cell-free
[7] = target: T1, DNA polymerase eta; experiment: Inhibition of human DNA polymerase eta (1 to 437 residues) using 5'-TTT TTT TTG C-TAMRA-3' reporter/5'-(FAM-TTT)-GGGGGAAGGATTC-3' primer/5'-TCACGGAATCCTTCCCCC-3' template as DNA substrate preincubated for 5 to 10 mins followed by DNA substrate addition measured immediately in presence of dTTP/MgCl2 by fluorescence based assay
[8] = target: T1, DNA polymerase eta; experiment: Inhibition of 6xHis-tagged human DNA polymerase eta (1 to 437 residues) expressed in Escherichia coli BL21 DE3 assessed as displacement of reporter strand using 5'-TTT TTT TTG C-TAMRA-3' reporter/5'-TCA CCC TCG TAC GAC TCT T-3' primer/5'-BHQ2-GCAAAAAAAAAAGAGTCGTACGAGGGTGA-3' template of 1:1.5:1.5 as DNA substrate preincubated for 5 to 10 mins followed by substrate addition measured immediately in presence of dTTP/MgCl2 by fluorescence based assay
[9] = Inhibition of DNA polymerase (unknown origin); design: species or system Homo sapiens

| SMILES | IC50 [1] [µM] | other results |
| --- | --- | --- |
| COc1ccc(-c2cc(=O)c3c(OC)c(OC)c(OC)cc3o2)cc1OC [SINENSETIN] | > 100 |  |
| COc1cccc2oc(-c3ccccc3C)cc(=O)c12 | > 100 |  |
| O=c1c(-c2ccc(O)cc2)coc2cc(O)cc(O)c12 [GENISTEIN] | 92.4 |  |
| COc1cccc2oc(-c3ccc(O)cc3C)cc(=O)c12 | 98.3 |  |
| COc1cccc2oc(-c3ccccc3C(F)(F)F)cc(=O)c12 | > 100 |  |
| O=c1cc(-c2ccc(O)c(O)c2)oc2ccccc12 | 30.5 |  |
| CCCCc1c(-c2ccc(O)c(O)c2)oc2cc(O)cc(O)c2c1=O | > 100 |  |
| Cc1cc(=O)c2c(CC(=O)CC(O)CC(=O)O)cccc2o1 (racemic) |  | inhibition [2]: 22.8%; inhibition [3]: 100% |
| O=c1cc(-c2ccc(O)c(O)c2)oc2cc(F)cc(O)c12 | 13.8 | half-life at 4.6 µM [4]: > 60 min; solubility kinetic at 24 h, 250 µM [5]: < 1 µM; half-life at 2 µM [6]: > 120 min |
| O=c1cc(Cc2ccc(O)c(O)c2)oc2cccc(O)c12 | > 100 |  |
| O=c1cc(-c2ccccc2)oc2cc(O)cc(O)c12 [CHRYSIN] | 14.8 |  |
| CCCCOc1c(-c2ccc(O)c(O)c2)oc2cc(O)cc(O)c2c1=O | 62.4 |  |
| COc1cc(O)cc2oc(-c3ccc(O)c(O)c3)cc(=O)c12 | 10.2 | half-life at 4.6 µM [4]: > 60 min; solubility kinetic at 24 h, 250 µM [5]: 87 µM (≈ 26.1 µg/mL); half-life at 2 µM [6]: > 120 min |
| CCOc1c(-c2ccc(O)c(O)c2)oc2cc(O)cc(O)c2c1=O | 33.5 |  |
| O=c1cc(-c2ccccc2)oc2cc(O)c(O)c(O)c12 [BAICALEIN] | 11.8 | half-life at 4.6 µM [4]: 41 min; solubility kinetic at 24 h, 250 µM [5]: 12 µM (≈ 3.24 µg/mL); half-life at 2 µM [6]: > 120 min |
| O=c1c(O)c(-c2ccc(O)cc2)oc2cc(O)cc(O)c12 [KAEMPFEROL] | 12.7 |  |
| CCCc1c(-c2ccc(O)c(O)c2)oc2cc(O)cc(O)c2c1=O | 87.1 |  |
| O=c1c(OCCO)c(-c2ccc(O)c(O)c2)oc2cc(O)cc(O)c12 | 87.5 |  |
| O=C(O)CCc1cc(=O)c2c(O)cc(O)cc2o1 | > 100 |  |

| SMILES | IC50 [1] [µM] | other results |
| --- | --- | --- |
| O=c1cc(CCc2ccc(O)c(O)c2)oc2cccc(O)c12 | > 100 |  |
| O=c1c(O)c(-c2ccc(O)c(O)c2)oc2cc(O)cc(O)c12 [QUERCETIN] | 15.8 | half-life at 4.6 µM [4]: > 60 min; solubility kinetic at 24 h, 250 µM [5]: 16 µM (≈ 4.84 µg/mL); half-life at 2 µM [6]: 7 min |
| Cc1c(-c2ccc(O)c(O)c2)oc2cc(O)cc(O)c2c1=O | 84.6 |  |
| O=C1NC(=S)NC(=O)C1=Cc1cn(Cc2ccc3ccccc3c2)c2ccc(Cl)cc12 |  | IC50 [7]: 8 µM |
| O=c1cc(/C=C/c2ccc(O)c(O)c2)oc2cccc(O)c12 | > 100 |  |
| O=c1cc(-c2ccc(O)c(O)c2)oc2cccc(O)c12 | 8.7 | half-life at 4.6 µM [4]: > 60 min; solubility kinetic at 24 h, 250 µM [5]: 9 µM (≈ 2.43 µg/mL); half-life at 2 µM [6]: > 120 min |
| O=c1cc(-c2ccc(O)c(O)c2)oc2cc(O)cc(O)c12 [LUTEOLIN] | 12.7 | inhibition [2]: 49.9%; inhibition [3]: 95%; half-life at 4.6 µM [4]: > 60 min; solubility kinetic at 24 h, 250 µM [5]: 21 µM (≈ 6.01 µg/mL); half-life at 2 µM [6]: > 120 min |
| COc1cccc2oc(-c3ccccc3F)cc(=O)c12 | > 100 |  |
| O=C(O)c1cc(-c2cc(=O)c3c(O)cc(O)cc3o2)ccc1O | 7.7 |  |
| O=c1cc(-c2ccc(O)cc2)oc2cc(O)cc(O)c12 [APIGENIN] | 22.2 | half-life at 4.6 µM [4]: 8 min; solubility kinetic at 24 h, 250 µM [5]: 13 µM (≈ 3.51 µg/mL); half-life at 2 µM [6]: > 120 min |
| O=c1cc(-c2cccc(O)c2)oc2cc(O)cc(O)c12 | 5 | half-life at 4.6 µM [4]: 11 min; solubility kinetic at 24 h, 250 µM [5]: 6 µM (≈ 1.62 µg/mL); half-life at 2 µM [6]: > 120 min |
| O=c1cc(-c2ccc(O)c(O)c2)oc2cc(O)ccc12 | 27 |  |
| O=C(Nc1ccc(O)c(O)c1)c1cc(=O)c2c(O)cccc2o1 | 26.5 |  |
| O=C1NC(=S)NC(=O)C1=Cc1cn(C(=O)c2ccc3ccccc3c2)c2ccc(Cl)cc12 |  | IC50 [8]: 16 µM |
| O=c1cc(-c2ccc3c(c2)OC(F)(F)O3)oc2cc(O)cc(O)c12 | > 100 |  |
| COc1c(-c2ccc(O)cc2)oc2cc(O)cc(O)c2c1=O [ISOKAEMPFERIDE] | 16.1 |  |
| O=C(O)C1=CC(=C(c2ccc(O)c(C(=O)O)c2)c2ccc(O)c(C(=O)O)c2)C=CC1=O [AURINTRICARBOXYLIC ACID] |  | IC50 [9]: 400 nM |
| COc1cc(O)c2c(=O)cc(-c3ccc4c(c3)OC(F)(F)O4)oc2c1 | > 100 |  |
